Values of other authors, collected in patent US20050147665A1, “Pharmaceutical and nutritional compositions” (Laxdale Limited, priority 1999, published 2005).

Details: patients with end-stage renal disease; lowering homocysteine by treatment with folic acid

## Nc1nc2ncc(CNc3ccc(C(=O)N[C@@H](CCC(=O)O)C(=O)O)cc3)nc2c(=O)[nH]1 [folic acid]
  elevations of DGLA and AA levels: significant in the cases of DGLA and AA
  elevations of EPA and DHA levels: not significant in the cases of EPA and DHA
